Data on 20 compounds can be found in patent EP0560267B1, “Isosteric antiherpes peptide derivatives” (BOEHRINGER INGELHEIM (CANADA) LTD., priority 1992, dated 1993).

Read-outs that look alike come from different tables or passages of the source.

The subject of experiment [1] is HSV-2. As to the kind of experiment: Inhibition of Herpes Simplex Virus (HSV-2) replication in cell culture. The class given is cell-based. The method, then: Inhibition of Herpes Simplex Virus (HSV-2) Replication in Cell Culture
BHK-21/C13 cells (ATCC CCL 10) are incubated for two days in 150 cm^2 T-flasks (1.5 x 10^6 cells/flask) with alpha-MEM medium (Gibco Canada Inc., Burlington, Ontario, Canada) supplemented with 8% (v/v) fetal bovine serum (FBS, Gibco Canada Inc.). The cells are trypsinized and then transferred to fresh media in a 24 well plate to give 2.5 x 10^5 cells in 750 µL of media per well. The cells are incubated at 37° for a period of 6 h to allow them to adhere to the plate. Thereafter, the cells are washed once with 500 µL of alpha-MEM supplemented with 0.5% (v/v) FBS and then incubated with 750 µL of the same media (low serum) for 3 days. After this period of serum starvation, the low serum medium is removed and the cells are incubated in 500 µL of BBMT for 2 to 3 hours. {BBMT medium is described by P. Brazeau et al., Proc. Natl. Acad. Sci. USA, 79, 7909 (1982).} Thereafter, the cells are infected with HSV-2 (multiplicity of infection = 0.02 PFU/cell) in 100 µL of BBMT medium. (Note: The HSV-2 used was strain HG-52, see Y. Langelier and G. Buttin, J. Gen. Virol., 57, 21 (1981); the virus was stored at -80°.) Following 1 h of virus adsorption at 37°, the media is removed and the cells are washed with BBMT (3 X 250 µL). The cells in each well are incubated with or without (control) appropriate concentrations of the test agent dissolved in 200 µL of BBMT medium. After 29 h of incubation at 37°, the infected cells are harvested by first freezing the plate at -80°, followed by thawing. The cells in each well are scraped off the surface of the well with the help of the melting ice fragments. After complete thawing, the cell suspensions are collected and each well is rinsed with 150 µL of BBMT medium. The viral sample (suspension plus washing) is sonicated gently for 4 min at 4°. Cell debris are removed by centrifugation (1000 times gravity for 10 minutes at 4°). The supernatant is collected and stored at -80° until determination of viral titer.
Viral titration was performed by a modification of the colorimetric assay method of M. Langlois et al., Journal of Biological Standardization, 14, 201 (1986).
More specifically, in a similar manner as described above, BHK-21/C13 cells are trypsinized and transferred to fresh media in a 96 well microtiter plate to give 20,000 cells in 100 µL of media per well. The cells in the prepared plate are incubated at 37° for 2 h. During that time, the viral sample is thawed and sonicated gently for 15 seconds, and log dilutions of the sample are prepared (1/5 sequential: 50 µL of the sample plus 200 µL of BBMT medium, sequential dilutions being done with a multichannel pipette.
On completion of the above 2 hour incubation of the BHK-21/C13 cells, the media is replaced with alpha-MEM medium supplemented with 3% (v/v) FBS. The cells are now ready to be infected with the various sample dilutions of virus. Aliquots (50 µL) of the various dilutions are transferred into the appropriate wells of the plate. The resulting infected cells are incubated for 2 days at 37°. Then 50 µL of a 0.15% (v/v) solution of neutral red dye in Hank's Balanced Salt Solution (pH 7.3, Gibco Canada Inc.) is added to each well. The prepared plate is incubated for 45 min at 37°. Medium from each well is then aspirated and the cells are washed once with 200 µL of Hank's Balanced Salt Solution. […]

Experiment [2] concerns the target T1, HSV-1 ribonucleotide reductase (Human herpesvirus 1, UniProt P08543).
T1 construct: HSV-1 ribonucleotide reductase (partially purified) was obtained from quiescent BHK-21/C13 cells infected with strain F HSV-1 virus; made in house; host or cells: quiescent BHK-21/C13 cells infected with HSV-1 strain F (virus-encoded enzyme, partially purified)
As to the kind of experiment: Inhibition of Herpes Simplex Virus (HSV-1) ribonucleotide reductase. It is filed as biochemical. An excerpt:
Inhibition of Herpes Simplex Virus (HSV-1) Ribonucleotide Reductase
• a) Preparation of Enzyme HSV-1 ribonucleotide reductase (partially purified) was obtained from quiescent BHK-21/C13 cells infected with strain F HSV-1 virus at 10 plaque forming units/cell as described by E.A. Cohen et al., J. Gen. Virol., 66, 733 (1985). • b) Assay and Results for Exemplified Peptides By following the procedure described by P. Gaudreau et al., J. Biol, Chem., 262, 12413 (1987), the assay results listed in the following Table I were obtained. The assay result for each exemplified compound of formula 1 is expressed as the concentration of the compound producing 50% of the maximal inhibition (IC50) of enzyme activity. The number of units of the enzyme preparation used in each assay was constant, based on the specific activity of the enzyme preparation. The results are relative to the activity obtained in control experiments without the test compound and represent the mean of four assays that varied less than 10% with each other.

[3] abbreviates: Human alphaherpesvirus 2, Table V, cell culture assay of example 11.
The mark [4] stands for this setting: Table I, partially purified enzyme from BHK-21/C13 cells infected with strain F HSV-1, mean of four assays.
[5] abbreviates: Human alphaherpesvirus 2, BHK21 (C13), 29 h, Table II, BHK-21/C13 cells, HSV-2 strain HG-52, 0.02 PFU/cell, 29 h incubation, read-out: EC50.
[6] abbreviates: Human alphaherpesvirus 2, BHK21 (C13), 29 h.

T1 sequence (P08543 whole entry): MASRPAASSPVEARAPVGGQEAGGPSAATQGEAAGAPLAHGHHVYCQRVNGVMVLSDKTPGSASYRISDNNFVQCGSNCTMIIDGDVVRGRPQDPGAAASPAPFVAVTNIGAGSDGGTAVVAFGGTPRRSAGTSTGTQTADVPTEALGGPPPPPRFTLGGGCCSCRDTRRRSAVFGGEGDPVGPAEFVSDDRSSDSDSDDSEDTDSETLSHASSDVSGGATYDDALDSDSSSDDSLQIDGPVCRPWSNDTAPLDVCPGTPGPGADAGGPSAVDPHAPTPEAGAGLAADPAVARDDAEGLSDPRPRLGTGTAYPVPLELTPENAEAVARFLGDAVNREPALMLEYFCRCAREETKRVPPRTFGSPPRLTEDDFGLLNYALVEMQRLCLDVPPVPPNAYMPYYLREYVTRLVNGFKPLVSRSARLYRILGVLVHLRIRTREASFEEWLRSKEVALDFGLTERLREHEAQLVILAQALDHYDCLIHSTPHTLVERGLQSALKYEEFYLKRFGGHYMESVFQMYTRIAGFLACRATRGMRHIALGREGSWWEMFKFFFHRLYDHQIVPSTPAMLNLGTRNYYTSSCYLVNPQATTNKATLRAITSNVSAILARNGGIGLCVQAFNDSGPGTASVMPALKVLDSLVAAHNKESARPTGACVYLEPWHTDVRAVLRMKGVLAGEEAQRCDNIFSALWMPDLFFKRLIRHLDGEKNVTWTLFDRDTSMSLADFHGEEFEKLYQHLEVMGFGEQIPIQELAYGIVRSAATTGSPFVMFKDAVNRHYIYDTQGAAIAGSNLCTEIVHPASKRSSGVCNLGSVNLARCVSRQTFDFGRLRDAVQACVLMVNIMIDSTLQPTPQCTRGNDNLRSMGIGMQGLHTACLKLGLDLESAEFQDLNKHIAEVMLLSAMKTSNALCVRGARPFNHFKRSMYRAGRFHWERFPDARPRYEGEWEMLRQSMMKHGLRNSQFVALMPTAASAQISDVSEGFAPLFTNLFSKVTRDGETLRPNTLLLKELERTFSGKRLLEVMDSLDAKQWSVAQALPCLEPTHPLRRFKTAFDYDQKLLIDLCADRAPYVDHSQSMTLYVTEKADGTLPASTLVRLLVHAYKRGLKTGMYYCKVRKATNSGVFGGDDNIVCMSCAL

`CCCC(CCC)NC(=O)NC(C(=O)CC(CC(=O)C(C)(C)C)C(=O)NC(C(=O)NC(C)C(C)(C)C)C1(C(=O)O)CCCC1)C(C)(C)CC` [Pr2CHNHC(O)-NH-(S)-CH(CMe2Et)-C(O)-CH2-(R)-CH(CH2C(O)CMe3)C(O)-Asp-(cyPn)-NH-(R)-CH(Me)CMe3]: in experiment [1] (setting [3]), the 50% effective concentration (EC50) (in general, the concentration at which the effect is half-maximal) was determined as 13 µM. For the same compound, the 50% inhibitory concentration (IC50) – broadly, the midpoint of a concentration-inhibition curve – in experiment [2] (Table V, assay of example 10) was determined as 0.25 µM.

In experiment [1] (setting [3]), `CCCC(CCC)NC(=O)NC(C(=O)CC(CC(=O)C(C)(C)C)C(=O)NC(C(=O)NCC(C)(C)C)C(CCC)C(=O)O)C(C)(C)C` [Pr2CHNHC(O)-Tbg-CH2-(R)-CH(CH2-C(O)CMe3)C(O)-Asp{(R)-Pr}-NHCH2CMe3] returned an EC50 of 46 µM. The compound further had an IC50 in experiment [2] (Table V, assay of example 10) of 0.25 µM. Compound `CCC(CC)NC(=O)NC(C(=O)CC(CC(=O)C(C)(C)C)C(=O)NC(C(=O)NC(CC(C)(C)C)C(N)=O)C1(C(=O)O)CCCC1)C(C)(C)C` [Et2CHNHC(O)-Tbg-CH2-(R)-CH(CH2C(O)-CMe3)C(O)-Asp(cyPn)-γMeLeu-NH2] came in with an IC50 in experiment [2] (setting [4]) of 0.22 µM. For the compound `CCCC(CCC)NC(=O)NC(C(=O)CC(CC(=O)C(C)(C)C)C(=O)NC(C(=O)NC(CC(C)(C)C)C(=O)O)C1(C(=O)O)CCCC1)C(C)(C)C` [Pr2CHNHC(O)-Tbg-CH2-(R)-CH(CH2C(O)-CMe3)C(O)-Asp(cyPn)-γMeLeu-OH], the IC50 in experiment [2] (setting [4]) was 0.15 µM. Regarding `CCCC(CCC)NC(=O)N[C@H](C(=O)C[C@@H](CC(=O)C1CCCC1)C(=O)N[C@H](C(=O)NCC(C)(C)C)C1(C(=O)O)CCCC1)C(C)(C)C` [Pr2CHNHC(O)-Tbg-CH2-(R)-CH{CH2C(O)(cyclopentyl)}C(O)-Asp(cyPn)-NHCH2CMe3], the EC50 in experiment [1] (setting [5]) came to 30 µM. As for `CCCC(CCC)NC(=O)NC(C(=O)CC(CC(=O)C(C)(C)C)C(=O)NC(C(=O)NC1CCCCC1C)C1(C(=O)O)CCCC1)C(C)(C)C` [Pr2CHNHC(O)-Tbg-CH2-(R)-CH(CH2C(O)CMe3)C(O)-Asp(cyPn)-trans-NH-(2-methyl-cyclohexyl)], the IC50 in experiment [2] (Table IV, assay of example 10) is 0.69 µM.

Compound `CC(C)[C@@H](C(=O)N[C@H](C(=O)C[C@@H](CC(=O)C(C)(C)C)C(=O)N[C@H](C(=O)N[C@@H](CC(C)(C)C)C(=O)O)C1(C(=O)O)CCCC1)C(C)(C)C)N(C)C(=O)CCc1ccccc1` [PhCH2CH2C(O)-(N-Me)Val-Tbg-CH2-(R)-CH(CH2C(O)CMe3)C(O)-Asp(cyPn)-γMeLeu-OH] registered an EC50 in experiment [1] (setting [6]) of 65 µM.

On to `CCC(CC)NC(=O)NC(C(=O)CC(CC(=O)C(C)(C)C)C(=O)NC(C(=O)NC(CC(C)(C)C)C(=O)O)C1(C(=O)O)CCCC1)C(C)(C)C` [Et2CHNHC(O)-Tbg-CH2-(R)-CH(CH2C(O)-CMe3)C(O)-Asp(cyPn)-γMeLeu-OH], for which, in experiment [2] (setting [4]), the midpoint of inhibition, the IC50, lay at 0.12 µM.

`CC(C)[C@@H](C(=O)N[C@H](C(=O)C[C@@H](CC(=O)C(C)(C)C)C(=O)N[C@H](C(=O)N[C@@H](CC(C)(C)C)C(N)=O)C1(C(=O)O)CCCC1)C(C)(C)C)N(C)C(=O)CCc1ccccc1` [PhCH2CH2C(O)-(N-Me)Val-Tbg-CH2-(R)-CH(CH2C(O)CMe3)C(O)-Asp(cyPn)-γMeLeu-NH2]: in experiment [1] (setting [6]), the response was half-maximal at 60 µM (EC50). Take `CCCC(CC)(CCC)NC(=O)N[C@H](C(=O)C[C@@H](CC(=O)C(C)(C)C)C(=O)N[C@H](C(=O)NCC(C)(C)C)C1(C(=O)O)CCCC1)C(C)(C)C` [EtPr2CNHC(O) / NHCH2CMe3, EtPr2CNHC(O)-Tbg-CH2-(R)-CH(CH2C(O)CMe3)C(O)-Asp(cyPn)-NHCH2CMe3]: the concentration for a half-maximal effect (EC50) in experiment [1] (Human alphaherpesvirus 2, Table IV, cell culture assay of example 11, read-out: EC50) worked out at 16 µM. As to “Pr2CHNHC(O)-Tbg-CH2-(R)-CH-(CH2C(O)CH2CMe3)C(O)-Asp(cyPn)-Leu-OH”, in experiment [1] (Table V, cell culture assay of example 11, read-out: EC50), the EC50 turned out to be 80 µM. On to `CC(C)C(C(=O)NC(C(=O)CC(CC(=O)C1CCCC1)C(=O)NC(C(=O)NCC(C)(C)C)C1(C(=O)O)CCCC1)C(C)(C)C)N(C)C(=O)CCc1ccccc1` [PhCH2CH2C(O)-(N-Me)Val-Tbg-CH2-(R)-CH{CH2C(O)-(cyclopentyl)}C(O)-Asp-(cyPn)-NHCH2CMe3], for which the IC50 in experiment [2] (setting [4]) was 0.32 µM. Take `CCCC(CCC)NC(=O)NC(C(=O)CC(CC(=O)C(C)(C)C)C(=O)NC(C(=O)NC1CCCCC1C)C1(C(=O)O)CCCC1)C(C)(C)C` [Pr2CHNHC(O) / trans-NH-(2-methyl-cyclohexyl)] [Pr2CHNHC(O)-Tbg-CH2-(R)-CH(CH2C(O)CMe3)C(O)-Asp(cyPn)-trans-NH-(2-methyl-cyclohexyl)]: the EC50 in experiment [1] (Table IV, cell culture assay of example 11, read-out: EC50) stood at 60 µM. Regarding `CC(C)[C@@H](C(=O)N[C@H](C(=O)C[C@@H](CC(=O)C(C)(C)C)C(=O)N[C@H](C(=O)N[C@H](CO)CC(C)(C)C)C1(C(=O)O)CCCC1)C(C)(C)C)N(C)C(=O)CCc1ccccc1` [Title Compound of Example 6, PhCH2CH2C(O)-(N-Me)Val-Tbg-CH2(R)-CH(CH2C(O)CMe3)C(O)-Asp(cyPn)-γMeLeucinol], the EC50 in experiment [1] (Human alphaherpesvirus 2, BHK21 (C13)) was found to be 19 µM; in experiment [1] (setting [6]) it was 15 µM.

Consider `CCCC1(NC(=O)N[C@H](C(=O)C[C@@H](CC(=O)C(C)(C)C)C(=O)N[C@H](C(=O)NCC(C)(C)C)C2(C(=O)O)CCCC2)C(C)(C)C)CCCC1` [(1-propylcyclopentyl)aminocarbonyl-Tbg-CH2-(R)-CH(CH2C(O)CMe3)C(O)-Asp(cyPn)-NHCH2CMe3], for which, in experiment [1] (setting [5]), the 50% effective concentration (EC50) was found to be 40 µM.

`CC(C)C(C(=O)NC(C(=O)CC(CC(=O)C(C)(C)C)C(=O)NC(C(=O)NCC(C)(C)C)C1(C(=O)O)CCCC1)C(C)(C)C)N(C)C(=O)CCc1ccccc1` [PhCH2CH2C(O)-(N-Me)Val-Tbg-CH2-(R)-CH(CH2C(O)CMe3)C(O)-Asp(cyPn)-NHCH2CMe3] displayed a 50% inhibitory concentration (IC50) in experiment [2] (setting [4]) of 0.33 µM. In experiment [2] (setting [4]), `CC(C)C(C(=O)NC(C(=O)CC(CC(=O)C(C)(C)C)C(=O)NC(C(=O)NCC(C)(C)C)C(C)C(=O)O)C(C)(C)C)N(C)C(=O)CCc1ccccc1` [PhCH2CH2C(O)-(N-Me)Val-Tbg-CH2-(R)-CH(CH2C(O)CMe3)C(O)-Asp{(R)-Me}-NHCH2CMe3] registered an IC50 of 0.33 µM. Consider `Nc1nc2c(ncn2COCCO)c(=O)[nH]1` [acyclovir, reference compound], for which the EC50 in experiment [1] (Human alphaherpesvirus 2, BHK21 (C13), Table III, agent alone, BHK-21/C13 cells, HSV-2 strain HG-52, read-out: EC50) was 3.5 µM. In addition, the “action of the combination of acyclovir and the peptide of formula 1” value in experiment [1] (combination of acyclovir with the title peptide of example 6, EC50's lower than acyclovir alone, isobole method, Figure 1) is “synergistic action”.

As to `CCC(CC)NC(=O)NC(C(=O)CC(CC(=O)C(C)(C)C)C(=O)NC(C(=O)NCC(C)(C)C)C(C)C(=O)O)C(C)(C)C` [Et2CHNHC(O)-Tbg-CH2-(R)-CH(CH2C(O)-CMe3)C(O)-Asp{(R)-Me}-NHCH2CMe3], in experiment [2] (setting [4]), the IC50 worked out at 0.2 µM. The compound `CCC(CC)NC(=O)NC(C(=O)CC(CC(=O)C(C)(C)C)C(=O)NC(C(=O)NC(CO)CC(C)(C)C)C1(C(=O)O)CCCC1)C(C)(C)C` [Title Compound of Example 7, Et2CHNHC(O)-Tbg-CH2-(R)-CH(CH2C(O)CMe3)CO-Asp(cyPn)-γMeLeucinol] gave an IC50 in experiment [2] (setting [4]) of 0.15 µM.
